Experimental data published in US9956301B2, “Complex of garcinol, cyclodextrin and method thereof” (Indus Biotech Private Limited, priority 2010, dated 2018).
Where two headings read alike, the source gives them in different places.

Tests used:
[1] = system: cardiac dysfunction induced by chronic Doxorubicin administration; assay: Effect of test molecule in chronic administration of Doxorubicin; assay type: in vivo, Male Wistar rats; conditions: for Cytoplasmic Eosinophilia / Cytoplasmic vacuoles / Inflammation / Myocardial necrosis / Vascular congestion: heart histopathology, day 30, chronic Doxorubicin, Test Molecule 20 mg/kg; for Cytoplasmic Eosinophilia / Cytoplasmic vacuoles / Inflammation / Myocardial necrosis / Vascular congestion / Glutathione / Lipid Peroxidation: n = 4; for Glutathione / Lipid Peroxidation: heart tissue, Test Molecule 20 mg/kg p.o. 30 days + chronic Doxorubicin; for Glutathione / Lipid Peroxidation / Diastolic Blood Pressure / Mean Arterial Blood Pressure / Systolic Blood Pressure / Difference in Heart Rate / Difference in QT interval / Difference in QTc interval / Difference in ST interval: rats, Doxorubicin Control = Doxorubicin alone, Mean ± SEM; for Diastolic Blood Pressure / Mean Arterial Blood Pressure / Systolic Blood Pressure: Test Molecule 20 mg/kg p.o. 30 days + chronic Doxorubicin 3 mg/kg x 5; for Diastolic Blood Pressure / Mean Arterial Blood Pressure / Systolic Blood Pressure / Difference in Heart Rate / Difference in QT interval / Difference in QTc interval / Difference in ST interval: n = 6; for Difference in Heart Rate / Difference in QT interval / Difference in QTc interval / Difference in ST interval: pretreatment p.o. 30 days (Test Molecule 20 mg/kg) + Doxorubicin 3 mg/kg on days 1, 7, 14, 21, 28
Method: Male Wistar rats were pretreated with 20 mg/kg (p.o.) of test molecule for 30 days. On days 1, 7, 14, 21 and 28, Doxorubicin at a dose of 3 mg/kg […] was administered intravenously. On Day 30, animals were sacrificed for histopathological examination of the heart.

[2] = system: Doxorubicin induced cardiac dysfunction; assay: Activity of Garcinol against Doxorubicin induced cardiac dysfunction; assay type: in vivo; conditions: rats; for Glutathione / Lipid Peroxidation: heart tissue, Garcinol 100 mg/kg p.o. + Doxorubicin 10 mg/kg i.v., n = 4
Method: Male Wistar rats were pretreated with Garcinol at 10, 25, 50, 100 and 200 mg/kg (p.o.) for 18 days. On day 16, Doxorubicin at a dose of 10 mg/kg (i.v.) was administered intravenously. On day 18, animals were sacrificed. […] Elevated oxidative stress on the heart was also seen from increased lipid peroxidation and decreased glutathione (GSH) concentrations.

[3] = system: Doxorubicin induced cardiac dysfunction; assay type: in vivo; conditions: rats, Doxorubicin Control = Doxorubicin alone, Mean ± SEM; for Glutathione / Lipid Peroxidation: heart tissue, Test Molecule 20 mg/kg p.o. + Doxorubicin 10 mg/kg i.v., n = 4; for Diastolic Blood Pressure / Mean Arterial Blood Pressure / Systolic Blood Pressure: Test Molecule 20 mg/kg p.o. 18 days + Doxorubicin 10 mg/kg i.v. day 16; for Diastolic Blood Pressure / Mean Arterial Blood Pressure / Systolic Blood Pressure / Difference in Heart Rate / Difference in QT interval / Difference in ST interval: n = 6; for Difference in Heart Rate / Difference in QT interval / Difference in ST interval: pretreatment p.o. 18 days (Test Molecule 20 mg/kg) + Doxorubicin 10 mg/kg i.v. day 16
Method: Male Wistar rats were pretreated with 20 mg/kg (p.o.) of test molecule for 18 days. On day 16, Doxorubicin at a dose of 10 mg/kg (i.v.) was administered intravenously. On day 18, animals were sacrificed. […] It also induces significant prolongation of QT and ST intervals. Significant reduction of mean arterial blood pressure, systolic and diastolic blood pressures were observed. Elevated oxidative stress on the heart was also seen from increased lipid peroxidation and decreased glutathione (GSH) concentrations.

[4] = Water solubility of Garcinol and test molecule; assay type: physicochemical; conditions: room temperature
From the text: Garcinol is insoluble in water at room temperature.

[5] = system: Isoproterenol induced cardiac dysfunction; assay: Cardioprotective activity of test molecule in Isoproterenol induced cardiac dysfunction; assay type: in vivo, Male Wistar rats; conditions: rats, Isoproterenol Control = Isoproterenol alone, Mean ± S.E.M.
Method: Male Wistar rats were pretreated with 20 mg/kg (p.o.) of test molecule 18 days. From Day 9, Isoproterenol at a dose of 1 mg/kg/day was administered intravenously for 10 days. Isoproterenol administration induced significant changes to the QT and ST interval. Isoproterenol induced oxidative stress was observed by decreased Glutathione (GSH) and increased lipid peroxidation concentrations in the heart.

[6] = system: Digitalis induced cardiac dysfunction; assay: Cardioprotective activity of test molecule in Digitalis induced cardiac dysfunction; assay type: in vivo, Male Wistar rats
Method: Male Wistar rats were pretreated with 20 mg/kg (p.o.) of test molecule for 18 days. On Day 18, Digitalis at a three doses of 500 […] was administered intravenously with interval period of 15 min. After this, 200 […] was administered every 15 min continued upto cardiac arrest. Histopathological examination of the heart was conducted.

[7] = Doxorubicin Control = Doxorubicin alone, Mean ± SEM
[8] = Garcinol 100 mg/kg p.o. 18 days + Doxorubicin 10 mg/kg i.v. day 16, Doxorubicin Control = Doxorubicin alone, Mean ± SEM, n = 6
[9] = heart tissue, Test Molecule 20 mg/kg + Isoproterenol, n = 4
[10] = test molecule 20 mg/kg p.o. 18 days + Isoproterenol 1 mg/kg/day i.v. 10 days from Day 9, n = 5
[11] = heart histopathology, Digitalis induced cardiac dysfunction, n = 4
[12] = rats, test molecule 20 mg/kg p.o. 18 days + Digitalis i.v., Digitalis Control = Digitalis alone, Mean ± S.E.M, n = 4
[13] = rats, test molecule 20 mg/kg p.o. 18 days, then Digitalis i.v. every 15 min up to cardiac arrest, Digitalis Control = Digitalis alone, Mean ± S.E.M., n = 6

Molecule	Cytoplasmic Eosinophilia [1]	Cytoplasmic vacuoles [1]	Inflammation [1]	Myocardial necrosis [1]	Vascular congestion [1]	Glutathione [1]	Lipid Peroxidation [1]	Diastolic Blood Pressure [1]	Mean Arterial Blood Pressure [1]	Systolic Blood Pressure [1]	Difference in Heart Rate [1]	Difference in QT interval [1]	Difference in QTc interval [1]	Difference in ST interval [1]	Glutathione [2, 7]	Lipid Peroxidation [2, 7]	Glutathione [3]	Lipid Peroxidation [3]	Diastolic Blood Pressure [3]	Mean Arterial Blood Pressure [3]	other results
COc1cccc2c1C(=O)c1c(O)c3c(c(O)c1C2=O)C[C@@](O)(C(=O)CO)C[C@@H]3O[C@H]1C[C@H](N)[C@H](O)[C@H](C)O1 [Doxorubicin]	+++ ((+++) 60-90% of cells show changes)	++ ((++) 30-60% of cells show changes)	+++ ((+++) 60-90% of cells show changes)	+++ ((+++) 60-90% of cells show changes)	++ ((++) 30-60% of cells show changes)	15.05 ± 0.8970 μg/mg of protein	4.631 ± 0.3671 nmol of MDA/mg of Protein	82.81 ± 1.997 mm Hg	86.67 ± 0.9226 mm Hg	92.59 ± 1.728 mm Hg	−64.59 ± 12.13 bpm	0.015 ± 0.00087 s	0.035 ± 0.0046 s	0.016 ± 0.0015 s	16.10 ± 1.17 μg/mg of protein	4.56 ± 0.47 nmol of MDA/mg of Protein	17.29 ± 0.4496 μg/mg of protein	4.160 ± 0.3427 nmol of MDA/mg of Protein	75.96 ± 3.611 mm Hg	89.26 ± 1.837 mm Hg	Number of Animals Deaths ([2]; Doxorubicin Control: Doxorubicin 10 mg/kg i.v. day 16 alone): 0/6; Difference in Heart Rate [2, 8]: −77.5 ± 19.63 bpm; Difference in QT interval [2, 8]: 0.014 ± 0.0035 s; Difference in ST interval [2, 8]: 0.0085 ± 0.0048 s; Systolic Blood Pressure [3]: 89.44 ± 5.108 mm Hg; Difference in Heart Rate [3]: −33.67 ± 15.96 bpm; Difference in QT interval [3]: 0.0229 ± 0.00206 s; Difference in ST interval [3]: 0.015 ± 0.001497 s
C=C(C)[C@@H](CC=C(C)C)C[C@@]12C[C@@H](CC=C(C)C)C(C)(C)[C@@](CC=C(C)C)(C(=O)C(C(=O)c3ccc(O)c(O)c3)=C1O)C2=O [Garcinol]															22.05 ± 1.031 μg/mg of protein	1.69 ± 0.04 nmol of MDA/mg of Protein					Water solubility [4]: insoluble; Animal mortality / toxicity (in words) ([2]; Garcinol 100 to 200 mg/kg p.o., Doxorubicin 10 mg/kg i.v.): animal mortality was observed
CC(C)NCC(O)c1ccc(O)c(O)c1 (stereo not shown) [Isoproterenol]																					Glutathione [5, 9]: 19.02 ± 0.8526 μg/mg of protein; Lipid Peroxidation [5, 9]: 4.443 ± 0.0392 nmol of MDA/mg of Protein; Difference in Heart Rate [5, 10]: 43.66 ± 6.267 bpm; Difference in QT interval [5, 10]: 0.01686 ± 0.002 s; Difference in ST interval [5, 10]: 0.0180 ± 0.0009 s; Mean Arterial Blood Pressure [5, 10]: 72.45 ± 5.942 mm Hg
Cyclodextrin	++ ((++) 30-60% of cells show changes)	++ ((++) 30-60% of cells show changes)	+++ ((+++) 60-90% of cells show changes)	+++ ((+++) 60-90% of cells show changes)	++ ((++) 30-60% of cells show changes)	15.15 ± 0.6584 μg/mg of protein	4.700 ± 0.6126 nmol of MDA/mg of Protein	80.00 ± 2.298 mm Hg	88.04 ± 1.813 mm Hg	92.22 ± 2.275 mm Hg	−66.22 ± 8.303 bpm	0.015 ± 0.00437 s	0.033 ± 0.0092 s	0.016 ± 0.0022 s			16.76 ± 0.4971 μg/mg of protein	4.056 ± 0.2880 nmol of MDA/mg of Protein	76.83 ± 1.709 mm Hg	89.26 ± 2.357 mm Hg	Systolic Blood Pressure [3]: 89.88 ± 4.507 mm Hg; Difference in Heart Rate [3]: −34.87 ± 6.935 bpm; Difference in QT interval [3]: 0.0225 ± 0.00091 s; Difference in ST interval [3]: 0.014 ± 0.001025 s
Digitalis																					Cytoplasmic Eosinophilia [6, 11]: ++ ((++) 30-60% of cells show changes); Cytoplasmic vacuoles [6, 11]: ++ ((++) 30-60% of cells show changes); Inflammation [6, 11]: +++ ((+++) 60-90% of cells show changes); Myocardial necrosis [6, 11]: +++ ((+++) 60-90% of cells show changes); Vascular congestion [6, 11]: ++ ((++) 30-60% of cells show changes); Glutathione [6, 12]: 21.01 ± 0.5369 μg/mg of protein; Lipid Peroxidation [6, 12]: 6.909 ± 0.4459 nmol of MDA/mg of Protein; Dose of Digitalis required for inducing Arterial Fibrillation [6, 13]: 2.933 ± 0.2333 mg/kg; Dose of Digitalis required for inducing Cardiac Arrest [6, 13]: 3.067 ± 0.2801 mg/kg; Dose of Digitalis required for inducing Ectopic Beats [6, 13]: 2.7 ± 0.2129 mg/kg
